Values of other authors, collected in patent publication US12527845B2, “Formulations” (Arecor Limited, priority 2016, dated 2026).

Conditions: 25° C.

Row | Compound | log K with respect to zinc ion binding
1 | NCCNCCN [DETA, diethylenetriamine] | 8.88
2 | O=C(O)CN(CCN(CC(=O)O)CC(=O)O)CC(=O)O [EDTA, ethylenediaminetetraacetate] | 14.5
3 | O=C(O)CN(CCOCCOCCN(CC(=O)O)CC(=O)O)CC(=O)O [EGTA, ethyleneglycoltetraacetate] | 12.6
4 | NCCNCCNCCN [TETA, triethylenetetramine] | 11.95
5 | O=C(O)CC(O)(CC(=O)O)C(=O)O [citrate] | 4.93
6 | N[C@@H](CS)C(=O)O [cysteine] | 9.11
7 | N[C@@H](CSSC[C@H](N)C(=O)O)C(=O)O [cystine] | 6.67
8 | NCCN [ethylenediamine] | 5.69
9 | N[C@@H](CCC(=O)O)C(=O)O [glutamate] | 4.62
10 | N[C@@H](CCC(=O)N[C@@H](CS)C(=O)NCC(=O)O)C(=O)O [glutathione] | 7.98
11 | N[C@@H](Cc1c[nH]cn1)C(=O)O [histidine] | 6.51
12 | O=P(O)(O)OP(=O)(O)O [pyrophosphate] | 8.71
